Assay results as given in ChEMBL document CHEMBL3885861, “Open TG-GATES”.

Species on record: Rattus norvegicus
Assay: Open TG-GATES - Regimen: Single
Type: toxicity, organism-based, Sprague-Dawley
Parameters: regimen Single, gender Male, age 6 weeks
Conditions: in vivo, po, 25 mg/kg, route gavage, dose level Low; for APTT / Bas / Eos / Fbg / Hb / Ht / Lym / MCH / MCHC / MCV / Mono / Neu / PT / Plat / RBC / Ret / WBC: tissue Blood; for KIDNEY_L / KIDNEY_R / KIDNEY_TOTAL: tissue Kidney; for LIVER: tissue Liver; for ALP / ALT / AST / BUN / CRE / DBIL / GLC / K / Na / PL / RALB / TBIL / TC / TG / TP / gamma-GTP: tissue Plasma

CN1C(=O)CN=C(c2ccccc2)c2cc(Cl)ccc21 [DIAZEPAM]
TERMINAL_BW (3 h): 218.9 g
APTT (3 h): 16.3 s
Bas (3 h): 0%
Eos (3 h): 1.2%
Fbg (3 h): 227 mg/dL
Hb (3 h): 13.9 g/dL
Ht (3 h): 41.8%
Lym (3 h): 76.6%
MCH (3 h): 21.8 pg
MCHC (3 h): 33.2%
MCV (3 h): 65.8 fL
Mono (3 h): 7.8%
Neu (3 h): 14.8%
PT (3 h): 12.4 s
Plat (3 h): 98.7 x10_4/uL
RBC (3 h): 636.6 x10_4/ul
Ret (3 h): 8.7%
WBC (3 h): 93.5 x10_2/uL
KIDNEY_L (3 h): 1 g
KIDNEY_R (3 h): 1 g
KIDNEY_TOTAL (3 h): 1.9 g
LIVER (3 h): 10.3 g
ALP (3 h): 763.4 IU/L
ALT (3 h): 30 IU/L
AST (3 h): 57.8 IU/L
BUN (3 h): 13.2 mg/dL
CRE (3 h): 0.5 mg/dL
DBIL (3 h): 0.018 mg/dL
GLC (3 h): 195.4 mg/dL
K (3 h): 5.3 meq/L
Na (3 h): 139 meq/L
PL (3 h): 150.2 mg/dL
RALB (3 h): 3.7 g/dL
TBIL (3 h): 0.4 mg/dL
TC (3 h): 83.2 mg/dL
TG (3 h): 66.2 mg/dL
TP (3 h): 5.5 g/dL
gamma-GTP (3 h): 2 IU/L
TERMINAL_BW (6 h): 216.1 g
APTT (6 h): 16.3 s
Bas (6 h): 0%
Eos (6 h): 0.6%
Fbg (6 h): 217 mg/dL
Hb (6 h): 13.9 g/dL
Ht (6 h): 42%
Lym (6 h): 79.4%
MCH (6 h): 21.6 pg
MCHC (6 h): 33%
MCV (6 h): 65.2 fL
Mono (6 h): 5.6%
Neu (6 h): 14.8%
PT (6 h): 12.1 s
Plat (6 h): 110.2 x10_4/uL
RBC (6 h): 643.4 x10_4/ul
Ret (6 h): 8.1%
WBC (6 h): 117.8 x10_2/uL
KIDNEY_L (6 h): 0.9 g
KIDNEY_R (6 h): 1 g
KIDNEY_TOTAL (6 h): 1.9 g
LIVER (6 h): 9.8 g
ALP (6 h): 989.8 IU/L
ALT (6 h): 30.8 IU/L
AST (6 h): 64.6 IU/L
BUN (6 h): 12 mg/dL
CRE (6 h): 0.5 mg/dL
DBIL (6 h): 0.058 mg/dL
GLC (6 h): 202.2 mg/dL
K (6 h): 5.3 meq/L
Na (6 h): 138.6 meq/L
PL (6 h): 143.4 mg/dL
RALB (6 h): 3.8 g/dL
TBIL (6 h): 0.4 mg/dL
TC (6 h): 77.2 mg/dL
TG (6 h): 67.4 mg/dL
TP (6 h): 5.7 g/dL
gamma-GTP (6 h): 1 IU/L
TERMINAL_BW (9 h): 212.2 g
APTT (9 h): 16.6 s
Bas (9 h): 0%
Eos (9 h): 0.6%
Fbg (9 h): 229.8 mg/dL
Hb (9 h): 13.8 g/dL
Ht (9 h): 41.7%
Lym (9 h): 78.8%
MCH (9 h): 21.6 pg
MCHC (9 h): 33%
MCV (9 h): 65.4 fL
Mono (9 h): 6.2%
Neu (9 h): 14.4%
PT (9 h): 12.2 s
Plat (9 h): 102.9 x10_4/uL
RBC (9 h): 638.2 x10_4/ul
Ret (9 h): 7.5%
WBC (9 h): 107.6 x10_2/uL
KIDNEY_L (9 h): 1 g
KIDNEY_R (9 h): 1 g
KIDNEY_TOTAL (9 h): 2 g
LIVER (9 h): 9.4 g
ALP (9 h): 723.6 IU/L
ALT (9 h): 26 IU/L
AST (9 h): 57.2 IU/L
BUN (9 h): 12.4 mg/dL
CRE (9 h): 0.6 mg/dL
DBIL (9 h): 0.044 mg/dL
GLC (9 h): 212.6 mg/dL
K (9 h): 4.8 meq/L
Na (9 h): 139.6 meq/L
PL (9 h): 142 mg/dL
RALB (9 h): 3.9 g/dL
TBIL (9 h): 0.3 mg/dL
TC (9 h): 83.8 mg/dL
TG (9 h): 44.8 mg/dL
TP (9 h): 5.7 g/dL
gamma-GTP (9 h): 1.6 IU/L
TERMINAL_BW (24 h): 227.7 g
APTT (24 h): 16.3 s
Bas (24 h): 0%
Eos (24 h): 1%
Fbg (24 h): 219.6 mg/dL
Hb (24 h): 13.4 g/dL
Ht (24 h): 40.4%
Lym (24 h): 81%
MCH (24 h): 21.7 pg
MCHC (24 h): 33.1%
MCV (24 h): 65.7 fL
Mono (24 h): 5.6%
Neu (24 h): 12.2%
PT (24 h): 12.2 s
Plat (24 h): 105.2 x10_4/uL
RBC (24 h): 616 x10_4/ul
Ret (24 h): 8.5%
WBC (24 h): 100.5 x10_2/uL
KIDNEY_L (24 h): 1 g
KIDNEY_R (24 h): 1.1 g
KIDNEY_TOTAL (24 h): 2.1 g
LIVER (24 h): 11.2 g
ALP (24 h): 1114.4 IU/L
ALT (24 h): 33.8 IU/L
AST (24 h): 63 IU/L
BUN (24 h): 16.6 mg/dL
CRE (24 h): 0.5 mg/dL
DBIL (24 h): 0.016 mg/dL
GLC (24 h): 185.6 mg/dL
K (24 h): 5.1 meq/L
Na (24 h): 140 meq/L
PL (24 h): 152.8 mg/dL
RALB (24 h): 3.7 g/dL
TBIL (24 h): 0.3 mg/dL
TC (24 h): 82.2 mg/dL
TG (24 h): 108.6 mg/dL
TP (24 h): 5.8 g/dL
gamma-GTP (24 h): 1.2 IU/L
